Measured values as given in publication PMC11597202, “Novel Thiazole-Fused [4,5-g] or [5,4-g]Quinazolin-8-ones and Their Quinazoline Analogues: Synthesis and Biological Evaluation” (Pharmaceuticals, 2024).

Biological target: T1, Haspin (Homo sapiens, UniProt Q8TF76)
T1 construct: amino acids 470 to Histone H3 peptide (1-21): (Other) 798, recombinant; host or cells: bacteria
T1 sequence (Q8TF76 470-798): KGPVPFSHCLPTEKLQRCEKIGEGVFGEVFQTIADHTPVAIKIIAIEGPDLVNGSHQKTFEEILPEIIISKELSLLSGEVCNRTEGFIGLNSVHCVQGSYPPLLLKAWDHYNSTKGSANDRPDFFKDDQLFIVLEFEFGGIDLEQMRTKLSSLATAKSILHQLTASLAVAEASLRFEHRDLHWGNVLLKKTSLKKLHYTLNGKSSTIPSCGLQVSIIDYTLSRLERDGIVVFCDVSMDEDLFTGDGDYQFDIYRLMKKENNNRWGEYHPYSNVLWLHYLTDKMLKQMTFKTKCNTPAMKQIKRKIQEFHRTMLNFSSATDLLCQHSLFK
Assay: ADP-Glo kinase inhibition assay, Haspin
Format: biochemical
Conditions: percentage of maximum activity of the DMSO control, mean n = 2, 10 µM ATP, read-out: Residual activity Haspin; for remaining activity at 1 µM: 1 μM compound; for remaining activity at 10 µM: 10 μM compound
Procedure: Kinase enzymatic activities were assayed in 384-well plates using the ADP-Glo^TM assay kit (Promega, Madison, WI, USA) according to the recommendations of the manufacturer. This luminescent ADP detection assay was described by Zegzouti and co-workers and provides a homogeneous and high-throughput screening method to measure kinase activity by quantifying the amount of ADP produced during a kinase reaction. Briefly, the reactions were carried out in a final volume of 6 µL for 30 min at 30 °C in an appropriate kinase buffer (10 mM MgCl2, 1 mM EGTA, 1 mM DTT, 25 mM Tris-HCl pH 7.5, 50 µg/mL heparin), with peptide or protein as substrate in the presence of 10 µM ATP. Peptide substrates were obtained from ProteoGenix (Schiltigheim, France) or Sigma for Histone H1, Poly (L-glutamic acid–L-tyrosine) sodium salt, Casein and MBP. After that, 6 µL of ADP-Glo^TM Kinase Reagent was added to stop the kinase reaction. After an incubation time of 50 min at room temperature (rt), 12 µL of Kinase Detection Reagent was added for one hour at rt. The transmitted signal was measured using the Envision (PerkinElmer, Waltham, MA, USA) microplate luminometer and expressed as Relative Light Units (RLUs). Kinase activities are expressed as percentages of remaining kinase activities detected after treatment with 1 or 10 µM of the tested compounds. The maximum kinase activity was measured in the absence of inhibitor but with an equivalent dose of DMSO (solvent of the tested compounds).
3. Kinase inhibition assays
Kinase enzymatic activities were assayed in 384-well plates using the ADP-GloTM assay kit (Promega, Madison, WI) according to the recommendations of the manufacturer. This luminescent ADP detection assay was described by Zegzouti and co-workers and provides a homogeneous and high-throughput screening method to measure kinase activity by quantifying the amount of ADP produced during a kinase reaction. Briefly, the reactions were carried out in a final volume of 6 µl for 30 min at 30°C in appropriate kinase buffer (10 mM MgCl2, 1 mM EGTA, 1 mM DTT, 25 mM Tris-HCl pH 7.5, 50 µg/mL heparin), with peptide or protein as substrate in the presence of 10 µM ATP. Peptide substrates were obtained from ProteoGenix (Schiltigheim, France) or Sigma for Histone H1, Poly (L-glutamic acid – L-tyrosine) sodium salt, Casein and MBP. After that, 6 µL of ADP-GloTM Kinase Reagent was added to stop the kinase reaction. After an incubation time of 50 min at room temperature (rt), 12 µL of Kinase Detection Reagent was added for 1 h at rt. The transmitted signal was measured using the Envision (PerkinElmer, Waltham, MA) microplate luminometer and expressed in Relative Light Unit (RLU). Kinase activities are expressed in percentages of remaining kinase activities detected after treatment with 1 or 10 µM of the tested compounds. The maximal kinase activity is measured in the absence of inhibitor but with an equivalent dose of DMSO (solvent of the tested compounds).
Table. Human protein kinases tested in the panel: CDK9, HASPIN, PIM1, GSK3b, CK1ε, JAK3, CLK1 […]
Protein Kinase Enzyme Description Substrate1
(Family) (Working concentration)
CDK9/CyclinT Human, recombinant, expressed by Peptide:
(CMGC) baculovirus in Sf9 insect cells […]
CLK1 Human, recombinant, expressed by Peptide: […]
(CMGC) baculovirus in Sf9 insect cells (57.3µM)
DYRK1A Human, recombinant, expressed by Peptide: […]
(CMGC) baculovirus in Sf9 insect cells (10.7µM)
PIM1 Human proto-oncogene, recombinant, Peptide: […]
(CAMK) expressed in bacteria (630 µM)
GSK3 Human, recombinant, expressed by Peptide:
(CMGC) baculovirus in Sf9 insect cells […]pEDEEE 3
HASPIN Human, kinase domain, amino acids 470 to Histone H3 peptide (1-21):
(Other) 798, recombinant, expressed in bacteria […] (8µM)
CK1ε Human, recombinant, expressed by Peptide: […]pAYSITA 2
(CK1) baculovirus in Sf9 insect cells (170µM)
JAK3 Human, recombinant, expressed by Peptide: […]
(TK) baculovirus in Sf9 insect cells (94µM) […]

| SMILES | remaining activity at 1 µM [%] | remaining activity at 10 µM [%] |
| --- | --- | --- |
| COC(=N)c1nc2cc3c(=O)n(Cc4ccccc4)cnc3cc2s1 [Compound 6a, Methyl 7-benzyl-8-oxo-7,8-dihydrothiazolo[4,5-g]quinazoline-2-carbimidate] | 89 | 105 |
| COC(=N)c1nc2cc3ncn(Cc4ccccc4)c(=O)c3cc2s1 [Compound 6b, Methyl 7-benzyl-8-oxo-7,8-dihydrothiazolo[5,4-g]quinazoline-2-carbimidate] | 95 | 82 |
| COC(=N)c1nc2c(ccc3c(=O)n(Cc4ccccc4)cnc32)s1 [Compound 6c, Methyl 7-benzyl-6-oxo-6,7-dihydrothiazolo[5,4-h]quinazoline-2-carbimidate] | 39 | 12 |
| COC(=N)c1nc2ccc3c(=O)n(Cc4ccccc4)cnc3c2s1 [Compound 6d, Methyl 7-benzyl-6-oxo-6,7-dihydrothiazolo[4,5-h]quinazoline-2-carbimidate] | 82 | 51 |
| COC(=N)c1nc2cc3c(Nc4ccc(OC)cc4F)ncnc3cc2s1 [Compound 15a, Methyl 8-[(2-fluoro-4-methoxyphenyl)amino]thiazolo[4,5-g]quinazoline-2-carbimidate] | 83 | 66 |
| COC(=N)c1nc2cc3ncnc(Nc4ccc(OC)cc4F)c3cc2s1 [Compound 15b, Methyl 8-[(2-fluoro-4-methoxyphenyl)amino]thiazolo[5,4-g]quinazoline-2-carbimidate] | 80 | 88 |
| COC(=N)c1nc2ccc3ncn(Cc4ccccc4)c(=O)c3c2s1 [Compound I, methyl 8-benzyl-9-oxo-8,9-dihydrothiazolo[5,4-f]quinazoline-2-carbimidate, reference compound] | 60 | 45 |
| COC(=N)c1nc2ccc3ncnc(Nc4ccc(OC)cc4F)c3c2s1 [Compound II, methyl 9-[(2-fluoro-4-methoxyphenyl)amino]thiazolo[5,4-f]quinazoline-2-carbimidate, reference compound] | 31 | 8 |
